Patent US12419950B2, “Saponin-based vaccine adjuvants” (THE UAB RESEARCH FOUNDATION, priority 2019, dated 2025)
Marks after values point to notes of the source that are not given here.

How the values were obtained:
[1] = system: antibody responses to chicken egg ovalbumin (OVA); assay: Serum IgG, IgG1 and IgG2a anti-OVA response (ELISA) in mice immunized s.c. with OVA plus adjuvant; type: in vivo, BALB/c mice; design: IgG2a, serum IgG subclass anti-OVA activity at week 6: unit not given here; conditions: for IgG1, serum IgG subclass anti-OVA activity at week 6 / IgG2a, serum IgG subclass anti-OVA activity at week 6: OVA 20 μg + adjuvant 100 μg s.c. days 0, 14, 28; for IgG1, serum IgG subclass anti-OVA activity at week 6 / IgG2a, serum IgG subclass anti-OVA activity at week 6 / IgG2a/IgG1, anti-OVA at week 6: mean ± SEM; for IgG2a/IgG1, anti-OVA at week 6: OVA 20 μg + adjuvant 100 μg s.c.; for IgG2a anti-OVA response in words / serum IgG anti-OVA response compared with OVA alone: study of saponins 3-6; for serum IgG anti-OVA response compared with OVA alone: weeks 2, 4, 6
Description: With pure natural saponins 3 and 4, and their derivatives 5 and 6 (FIG. 7) available, their ability to potentiate antibody responses to chicken egg ovalbumin (OVA) was evaluated. The known saponin adjuvant GPI-0100 was used as a positive control. Thus, groups of female BALB/c mice (8-10 weeks of age, six per group) were immunized by the subcutaneous route (s.c.) with OVA (20 μg) alone or with GPI-0100, saponins 3-6 at 100 μg dose on days 0, 14 and 28. Mice were weighed and serum samples were collected prior to each immunization and at 6 weeks after the initial immunization. The levels of serum IgG antibody activity to OVA were determined by enzyme-linked immunosorbent assay (ELISA), as shown in FIGS. 6A-6C, 9A-9C, and Table 1.
Their ability to potentiate antibody responses to chicken egg ovalbumin (OVA) was then evaluated. The known saponin adjuvant GPI-0100 was one of the positive controls. Also used was the recently reported MS derivative VSA-1 (4a) as the other positive control. Its high IgG1/IgG2a production and low toxicity are similar to that of GPI-0100. Thus, groups of female BALB/c mice (8-10 weeks of age, six per group) were immunized by the subcutaneous route (s.c.) with OVA (20 μg) alone or with GPI-0100, or a MS saponin derivative at 100 μg dose on days 0, 14 and 28. Mice were weighed and serum samples were collected prior to each immunization and at 2 weeks following the last immunization. The levels of serum antibody activity to OVA were determined by enzyme-linked immunosorbent assay (ELISA).
BALB/c mice used in this study were from Frederick Cancer Research (Fredrick, MD). To assess the adjuvant activity of the MS saponin-based immune adjuvants, groups of female mice (8-10 weeks of age; 6 mice per group) were immunized by the subcutaneous (s.c.) route with OVA (20 μg) or rHagB (35 μg) alone, or with antigen plus proper adjuvant such as GPI-0100 (100 μg) or a MS adjuvant (100 μg) on days 0, 14 and 28. Prior to each immunization and at two weeks post last immunization, mice were weighed and blood samples were collected from the lateral tail vein by using heparinized capillary pipettes. The serum was obtained after centrifugation and stored at −20° C. until assayed.
The levels of specific serum IgG and IgG subclasses against OVA or rHagB in each group were determined by an enzyme-linked immunosorbent assay (ELISA). Maxisorpmicrotiter plates (NUNC International, Roskilde, DK) were coated with rHagB (1 μg/ml), OVA (0.1 μg/ml), or with optimal amounts of goat anti-mouse IgG, IgG1 or IgG2a in borate buffer saline (BBS; 100 mM NaCl, 50 mM boric acid, 1.2 mM Na2B4O7, pH 8.2) at 4° C. overnight. Plates were blocked with 1% bovine serum albumin (BSA) and 0.02% sodium azide in BBS for 2 h at room temperature. Serial two-fold dilutions of serum samples were added in duplicate to the plates. To generate standard curves, serial dilutions of a mouse immunoglobulin reference serum (MP Biomedicals, Solon, OH) were added to two rows of wells in each plate that had been coated with the appropriate anti-mouse IgG or IgG subclass reagent. After incubation (overnight at 4° C.) and washing of the plates, horseradish peroxidase-conjugated goat anti-mouse IgG or IgG subclass antibody was added to appropriate wells. After 4 h of incubation at room temperature, plates were washed and developed by o-phenylenediamine substrate with hydrogen peroxide. Color development was recorded at 490 nm. The concentrations of antibodies were determined by interpolation on standard curves generated by using the mouse immunoglobulin reference serum and constructed by a computer program based on four-parameter logistic algorithms (Softmax/Molecular Devices Corp., Menlo Park, CA).
Statistical significance in antibody responses was evaluated by t tests (with unpaired, nonparametric and Mann-Whiteny test) using GraphPad Prism 8. Differences were considered significant at a P value<0.05.

serum Ab titers = conditions: in vivo; cited from earlier work

Compound	IgG1, serum IgG subclass anti-OVA activity at week 6 [1]	IgG2a, serum IgG subclass anti-OVA activity at week 6 [1]	IgG2a/IgG1, anti-OVA at week 6 [1]	IgG2a anti-OVA response in words [1]	serum IgG anti-OVA response compared with OVA alone [1]	boost of serum Ab titers compared to vaccine alone (serum Ab titers)
CC1OC(OC2C(O)C(C(=O)O)OC(OC3CCC4(C)C(CCC5(C)C4CC=C4C6CC(C)(C)CCC6(C(=O)OC6OC(C)C(O)C(O)C6OC6OC(C)C(OC7OCC(O)C(O)C7O)C(OC7OC(CO)C(O)C(OC8OCC(O)C(O)C8O)C7O)C6O)CCC45C)C3(C)C=O)C2OC2OC(CO)C(O)C(O)C2O)C(O)C(O)C1O (centres unmarked) [compound 3, Momordica saponin I]	233 ± 74 µg/mL	0.2	<0.001**	negligible IgG2a responses	did not show significant difference in IgG responses from the OVA group	–
Momordica saponins II [compound 4]	262 ± 37 µg/mL	0.1	<0.001**	negligible IgG2a responses	significant difference in IgG responses from the OVA group at weeks 2 (P<0.01) and 4 (P<0.001) but not at week 6	–
monophosphoryl lipid A [MPL]	–	–	–	–	–	10-20 fold
